One series relates to Enterococcus faecalis. In words: Minimum inhibition concentration against Enterococcus faecalis LS-101 strain. The series is classed as functional.
The subject of the next series is Streptococcus pneumoniae. In words: Minimum inhibition concentration against Streptococcus pneumoniae Type I strain. Format: functional.
For the next series, the system named is Pseudomonas aeruginosa. Put plainly: Minimum inhibition concentration against Pseudomonas aeruginosa U-31 strain. Format: functional.
Series [1] relates to Staphylococcus aureus. Put plainly: Minimum inhibition concentration against Staphylococcus aureus FDA209P strain. The series is classed as functional.
In series [2] the test system is Escherichia coli. Put plainly: Minimum inhibition concentration against Escherichia coli NIHJ JC-2 strain. The series is classed as functional.
Series [3] concerns Escherichia coli. In words: Effective dose against Escherichia coli KC14 strain in mouse. The series is classed as functional.
Series [4] has as its system Escherichia coli. In words: Minimum inhibitory concentration against Escherichia coli KC14 strain. The series is classed as functional.
Series [5] deals with T1, GABA-A receptor; anion channel (Homo sapiens) (UniProt P14867+P47870+P18507+P28472+P48169+Q99928+Q9UN88+P34903+O00591+O14764+Q8N1C3+P18505+P78334+P47869+P31644+Q16445). Put plainly: Percentage of GABA-induced chloride currents with 10 e-5 M 4-biphenylacetic acid. Format: functional. The settings on record: Bull Frog.
The target in series [6] is T1, GABA-A receptor; anion channel (Homo sapiens). In words: Percentage of GABA-induced chloride currents with 10e-4 M 4-biphenylacetic acid. Format: functional. Particulars: Bull Frog.
Series [7] shares this target. In words: Percentage of GABA-induced chloride currents with compound alone at 10 e-4 M. Format: functional. Particulars: Bull Frog.
For series [8], the system named is Mus musculus. In words: Percentage of mice with convulsion (400 mg/kg fenbufen). Format: functional.
Series [9] relates to Staphylococcus aureus. In words: Minimum inhibitory concentration against Staphylococcus aureus Smith. The series is classed as functional.
The subject of series [10] is Staphylococcus aureus. In words: Effective dose against Staphylococcus aureus smith strain in mouse. Format: functional.
Series [11] deals with GABA-A receptor; anion channel. Put plainly: Inhibition of [3H]muscimol binding to GABA A receptor 4-biphenylacetic acid at 10 e-4 M. The series is classed as protein-complex assay. The settings on record: read-out: IC50.
Series [12] has as its target GABA-A receptor; anion channel. Put plainly: Inhibition of [3H]muscimol binding to GABA A receptor with compound alone at 10 e-4 M. Format: protein-complex assay.
The nature of series [13]: The compound was evaluated for the solubility in water at 25 degrees Centigrade. Format: ADME.
The test system of series [14] is Mus musculus. In words: Percentage of mice with convulsion with compound alone at 400 mg/kg. Format: functional.

Broadly, the MIC is the least concentration at which growth counts as inhibited. A higher MIC goes with a need for much substance. Broadly, the IC50 is the concentration that gives 50% inhibition. As a reminder, the solubility is the concentration that dissolves in the medium under given conditions. A high value points to a readily soluble substance.

≈ marks a conversion by molar mass, not a printed value.

`O=C(O)c1cn(C2CC2)c2c(F)c(N3CCOC(CN4CCCCC4)C3)c(F)cc2c1=O` (configuration not stated): the minimum inhibitory concentration (MIC) was found to be 25 µg/mL (≈ 55.9 µM) in the series with Enterococcus faecalis; 6.25 µg/mL (≈ 14 µM) in the series with Streptococcus pneumoniae; 50 µg/mL (≈ 112 µM) with Pseudomonas aeruginosa; 0.78 µg/mL (≈ 1.74 µM) against Staphylococcus aureus [1]; 3.13 µg/mL (≈ 6.99 µM) in the series on Escherichia coli [2].
Turning to `NCC1CN(c2c(F)cc3c(=O)c(C(=O)O)cn(-c4cc(F)cc(F)c4)c3c2F)CCO1` (configuration not stated), the MIC against Enterococcus faecalis was 0.39 µg/mL (≈ 0.864 µM); in the series on Streptococcus pneumoniae, 0.2 µg/mL (≈ 0.443 µM); against Pseudomonas aeruginosa it was 6.25 µg/mL (≈ 13.8 µM); against Staphylococcus aureus [1], 0.2 µg/mL (≈ 0.443 µM); against Escherichia coli [2], 0.39 µg/mL (≈ 0.864 µM).
On to `NCC1CN(c2c(F)cc3c(=O)c(C(=O)O)cn(C4CC4)c3c2F)CCO1` (configuration not stated), for which the ED50 stood at 0.017 mg mouse-1 with Escherichia coli [3] and 0.067 mg mouse-1 in the series on Staphylococcus aureus [10]. Moreover, the MIC stood at 0.05 µg/mL (≈ 0.132 µM) in the series on Escherichia coli [4]; 0.05 µg/mL (≈ 0.132 µM) with Enterococcus faecalis; 0.05 µg/mL (≈ 0.132 µM) with Streptococcus pneumoniae; 0.78 µg/mL (≈ 2.06 µM) against Pseudomonas aeruginosa; 0.012 µg/mL (≈ 0.0316 µM) in the series on Staphylococcus aureus [9]; 0.025 µg/mL (≈ 0.0659 µM) in the series on Staphylococcus aureus [1]. The MIC in the series with Escherichia coli [2] was found to be 0.1 µg/mL (≈ 0.264 µM). Moreover, the Currents in [5] worked out at 90%; in [6], 72%; in [7], 90%. The Convulsion in the series on Mus musculus [8] and in the series with Mus musculus [14] was 0% each time. The IC50 in series [11] and in [12] was over 100 µM in each case. In series [13], this compound had a solubility of 580 µg/mL (≈ 1530 µM).
Take `CNCC1CN(c2c(F)cc3c(=O)c(C(=O)O)cn(C4CC4)c3c2F)CCO1` (configuration not stated): the ED50 in the series on Escherichia coli [3] worked out at 0.024 mg mouse-1; in the series on Staphylococcus aureus [10] it was 0.044 mg mouse-1. Besides, the MIC against Escherichia coli [4] was 0.05 µg/mL (≈ 0.127 µM); with Enterococcus faecalis it was 0.1 µg/mL (≈ 0.254 µM); in the series with Streptococcus pneumoniae, 0.1 µg/mL (≈ 0.254 µM); in the series with Pseudomonas aeruginosa, 3.13 µg/mL (≈ 7.96 µM); against Staphylococcus aureus [9], 0.012 µg/mL (≈ 0.0305 µM); against Staphylococcus aureus [1] it was 0.025 µg/mL (≈ 0.0636 µM). In addition, the MIC against Escherichia coli [2] stood at 0.1 µg/mL (≈ 0.254 µM). The Currents came to 90% in [5], 78% in series [6] and 94% in [7]. Moreover, the Convulsion in the series on Mus musculus [8] and in the series on Mus musculus [14] was 0% each time. Moreover, the 50% inhibitory concentration (IC50) in [11] and in series [12] was over 100 µM in each case. Also, the solubility in series [13] was determined as 630 µg/mL (≈ 1600 µM).
With `NCC1CN(c2c(F)cc3c(=O)c(C(=O)O)cn(CCF)c3c2F)CCO1` (configuration not stated), the MIC in the series on Enterococcus faecalis came to 0.78 µg/mL (≈ 2.02 µM); against Streptococcus pneumoniae it was 3.13 µg/mL (≈ 8.12 µM); in the series on Pseudomonas aeruginosa, 25 µg/mL (≈ 64.9 µM); with Staphylococcus aureus [1], 0.78 µg/mL (≈ 2.02 µM); in the series with Escherichia coli [2] it was 6.25 µg/mL (≈ 16.2 µM).
Regarding `CC1COc2c(N3CCN(C)CC3)c(F)cc3c(=O)c(C(=O)O)cn1c23` (configuration not stated) [OFLOXACIN], the ED50 with Escherichia coli [3] was determined as 0.009 mg mouse-1; in the series on Staphylococcus aureus [10], 0.27 mg mouse-1. For the same compound, the MIC with Escherichia coli [4] came out at 0.05 µg/mL (≈ 0.138 µM); against Enterococcus faecalis, 0.78 µg/mL (≈ 2.16 µM); against Streptococcus pneumoniae it was 0.78 µg/mL (≈ 2.16 µM); with Pseudomonas aeruginosa, 0.78 µg/mL (≈ 2.16 µM); in the series with Staphylococcus aureus [9] it was 0.2 µg/mL (≈ 0.553 µM); with Staphylococcus aureus [1], 0.2 µg/mL (≈ 0.553 µM). In the series with Escherichia coli [2], this compound came in with a minimum inhibitory concentration (MIC) of 0.1 µg/mL (≈ 0.277 µM). Also, the Currents worked out at 87% in [5], 39% in series [6] and 94% in series [7]. For the same compound, the Convulsion in the series with Mus musculus [8] and in the series on Mus musculus [14] was 0% throughout. For the same compound, the IC50 in [11] was 11 µM; in [12] it was over 100 µM.
Consider `CN(Cc1ccccc1)CC1CN(c2c(F)cc3c(=O)c(C(=O)O)cn(C4CC4)c3c2F)CCO1` (configuration not stated), for which the MIC against Enterococcus faecalis came out at 1.56 µg/mL (≈ 3.23 µM); against Streptococcus pneumoniae, 0.78 µg/mL (≈ 1.61 µM); against Pseudomonas aeruginosa, 25 µg/mL (≈ 51.7 µM); in the series with Staphylococcus aureus [1] it was 0.39 µg/mL (≈ 0.807 µM); with Escherichia coli [2], 1.56 µg/mL (≈ 3.23 µM).
In the case of `CCn1cc(C(=O)O)c(=O)c2cc(F)c(N3CCOC(CN)C3)c(F)c21` (configuration not stated), the ED50 in the series on Escherichia coli [3] turned out to be 0.232 mg mouse-1; in the series with Staphylococcus aureus [10], 0.521 mg mouse-1. Moreover, the MIC in the series with Escherichia coli [4] worked out at 0.39 µg/mL (≈ 1.06 µM); in the series on Enterococcus faecalis, 0.39 µg/mL (≈ 1.06 µM); against Streptococcus pneumoniae, 0.39 µg/mL (≈ 1.06 µM); in the series with Pseudomonas aeruginosa, 3.13 µg/mL (≈ 8.52 µM); in the series on Staphylococcus aureus [9], 0.1 µg/mL (≈ 0.272 µM); in the series on Staphylococcus aureus [1] it was 0.2 µg/mL (≈ 0.544 µM). Moreover, the MIC against Escherichia coli [2] amounted to 1.56 µg/mL (≈ 4.25 µM). Further, the figures for the Currents in series [5], in [6] and in series [7] were 89%, 79% and 94%, respectively. In addition, the Convulsion in the series with Mus musculus [8] and with Mus musculus [14] was 0% throughout. Further, the IC50 in series [11] and in [12] was over 100 µM throughout. Besides, the solubility in [13] was found to be 2900 µg/mL (≈ 7890 µM).
Consider `CCNCC1CN(c2c(F)cc3c(=O)c(C(=O)O)cn(C4CC4)c3c2F)CCO1` (configuration not stated), for which the MIC against Enterococcus faecalis was found to be 0.2 µg/mL (≈ 0.491 µM); with Streptococcus pneumoniae, 0.05 µg/mL (≈ 0.123 µM); with Pseudomonas aeruginosa it was 3.13 µg/mL (≈ 7.68 µM); against Staphylococcus aureus [1], 0.1 µg/mL (≈ 0.245 µM); in the series with Escherichia coli [2] it was 0.1 µg/mL (≈ 0.245 µM).

(Values after ChEMBL document CHEMBL1126682, “Quinolone antimicrobial agents substituted with morpholines at the 7-position. Syntheses and structure-activity relationships” (J Med Chem, 1993).)
